Patent US8748348B2, “3-(3,4-dihydro-2H-benzo [1,4]oxazin-6-yl)-1H-pyrimidin-2,4-dione compounds as herbicides” (BASF SE, priority 2009, dated 2014)

Tests used:
[1] = system: BRAPL; assay: greenhouse post-emergence herbicidal test; type: in vivo, Brachiaria plantaginea; conditions: scale from 0 to 100
From the text: (§1) The culture containers used were plastic flowerpots containing loamy sand with approximately 3.0% of humus as the substrate. The seeds of the test plants were sown separately for each species.
(§2) For the post-emergence treatment, the test plants were first grown to a height of 3 to 15 cm, depending on the plant habit, and only then treated with the active ingredients which had been suspended or emulsified in water. For this purpose, the test plants were either sown directly and grown in the same containers, or they were first grown separately as seedlings and transplanted into the test containers a few days prior to treatment.
(§3) Depending on the species, the plants were kept at 10-25° C. or 20-35° C. The test period extended over 2 to 4 weeks. During this time, the plants were tended, and their response to the individual treatments was evaluated.
(§4) Evaluation was carried out using a scale from 0 to 100. 100 means no emergence of the plants, or complete destruction of at least the aerial moieties, and 0 means no damage, or normal course of growth. A good herbicidal activity is given at values of at least 70 and a very good herbicidal activity is given at values of at least 85.

[2] = system: COMBE; assay: greenhouse post-emergence herbicidal test; type: in vivo, Commenline benghalensis; conditions: scale from 0 to 100
From the text: as §1, §2, §3, §4

[3] = system: ERICA; assay: greenhouse post-emergence herbicidal test; type: in vivo, Erigeron canadensis; conditions: scale from 0 to 100
From the text: as §1, §2, §3, §4

[4] = system: SETVI; assay: greenhouse post-emergence herbicidal test; type: in vivo, Setaria viridis; conditions: scale from 0 to 100
From the text: as §1, §2, §3, §4

[5] = system: BRADE; assay: greenhouse post-emergence herbicidal test; type: in vivo, Brachiaria deflexa; conditions: scale from 0 to 100
From the text: as §1, §2, §3, §4

[6] = system: ELEIN; assay: greenhouse post-emergence herbicidal test; type: in vivo, Eleusine indica; conditions: scale from 0 to 100
From the text: as §1, §2, §3, §4

[7] = system: DIGSA; assay: greenhouse post-emergence herbicidal test; type: in vivo, Digitaria sanguinales; conditions: scale from 0 to 100
From the text: as §1, §2, §3, §4

[8] = system: Solanum nigrum; assay: greenhouse pre-emergence herbicidal test; type: in vivo; conditions: pre-emergence method, application rate 6.25 g/ha
From the text: as §1
(§5) For the pre-emergence treatment, the active ingredients, which had been suspended or emulsified in water, were applied directly after sowing by means of finely distributing nozzles. The containers were irrigated gently to promote germination and growth and subsequently covered with transparent plastic hoods until the plants had rooted. This cover caused uniform germination of the test plants, unless this has been impaired by the active ingredients.
as §3, §4

[9] = system: Erigeron Canadensis; assay: greenhouse pre-emergence herbicidal test; type: in vivo; conditions: pre-emergence method, application rate 6.25 g/ha
From the text: as §1, §5, §3, §4

[10] = system: Amaranthus retroflexus; assay: greenhouse pre-emergence herbicidal test; type: in vivo; conditions: pre-emergence method, application rate 6.25 g/ha
From the text: as §1, §5, §3, §4

[11] = system: Pharbitis purpurea; assay: greenhouse pre-emergence herbicidal test; type: in vivo; conditions: application rate 0.025 kg/ha, eight days after treatment (greenhouse)
From the text: as §1, §5, §3, §4

[12] = system: Setaria faberi; assay: greenhouse pre-emergence herbicidal test; type: in vivo; conditions: application rate 0.025 kg/ha, eight days after treatment (greenhouse)
From the text: as §1, §5, §3, §4

[13] = system: Amaranthus retroflexus; assay: greenhouse post-emergence herbicidal test; type: in vivo; conditions: post-emergence method, application rate 6.25 g/ha
From the text: as §1, §2, §3, §4

[14] = system: Pharbitis purpurea; assay: greenhouse post-emergence herbicidal test; type: in vivo; conditions: post-emergence method, application rate 6.25 g/ha
From the text: as §1, §2, §3, §4

[15] = system: Chenopodium album; assay: greenhouse post-emergence herbicidal test; type: in vivo; conditions: post-emergence method, application rate 6.25 g/ha
From the text: as §1, §2, §3, §4

[16] = system: Abutilon theophrasti; assay: greenhouse post-emergence herbicidal test; type: in vivo; conditions: post-emergence method, application rate 6.25 g/ha
From the text: as §1, §2, §3, §4

## CCNc1nc(Cl)nc(NC(C)C)n1 [B.54, atrazine, reference compound]
[1]; B.54 250 g/ha a.s.
  herbicidal activity against BRAPL found: 20
[2]; B.54 250 g/ha a.s.
  herbicidal activity against COMBE found: 70

## CC(C)N(C)S(=O)(=O)NC(=O)c1cc(-n2c(=O)cc(C(F)(F)F)n(C)c2=O)c(F)cc1Cl [B.76, saflufenacil]
[3]; B.76 1.56 g/ha a.s.
  herbicidal activity against ERICA found: 45
[4]; B.76 1.56 g/ha a.s.
  herbicidal activity against SETVI found: 0

## Cc1c(C(=O)c2cnn(C)c2O)ccc(S(C)(=O)=O)c1C1=NOCC1 [B.93, topramezone, reference compound]
[5]; B.93 3.1 g/ha a.s.
  herbicidal activity against BRADE found: 65

## CC(C)N.O=C(O)CNCP(=O)(O)O [B.98, glyphosate-isopropylammonium]
[3]; B.98 68 g/ha a.s.
  herbicidal activity against ERICA found: 80
[6]; B.98 135 g/ha a.s.
  herbicidal activity against ELEIN found: 60
[4]; B.98 68 g/ha a.s.
  herbicidal activity against SETVI found: 90

## Cn1nc(C(F)(F)F)c(CS(=O)(=O)C2=NOC(C)(C)C2)c1OC(F)F [B.118, pyroxasulfone, reference compound]
[7]; B.118 12.5 g/ha a.s.
  herbicidal activity against DIGSA found: 35

## C#CCN1C(=O)C(F)(F)Oc2cc(F)c(-n3c(=O)cc(C(F)(F)F)n(C)c3=O)cc21 [Ia48, 1-Methyl-6-trifluoromethyl-3-(2,2,7-trifluoro-3-oxo-4-prop-2-ynyl-3,4-dihydro-2H-benzo[1,4]oxazin-6-yl)-1H-pyrimidine-2,4-dione]
[7]; Ia48 6.25 g/ha a.s.
  herbicidal activity against DIGSA found: 65
[8]
  herbicidal activity against Solanum nigrum: very good herbicidal activity (a very good herbicidal activity is given at values of at least 85)
[9]
  herbicidal activity against Erigeron Canadensis: very good herbicidal activity (a very good herbicidal activity is given at values of at least 85)
[10]
  herbicidal activity against Amaranthus retroflexus: very good herbicidal activity (a very good herbicidal activity is given at values of at least 85)
[11]
  damages, unwanted plants Pharbitis purpurea: 90
[12]
  damages, unwanted plants Setaria faberi: 98
[13]
  herbicidal activity against Amaranthus retroflexus: very good herbicidal activity (a very good herbicidal activity is given at values of at least 85)
[14]
  herbicidal activity against Pharbitis purpurea: very good herbicidal activity (a very good herbicidal activity is given at values of at least 85)
[15]
  herbicidal activity against Chenopodium album: very good herbicidal activity (a very good herbicidal activity is given at values of at least 85)
[16]
  herbicidal activity against Abutilon theophrasti: very good herbicidal activity (a very good herbicidal activity is given at values of at least 85)
[1]; Ia48 6.25 g/ha a.s.
  herbicidal activity against BRAPL found: 60
[5]; Ia48 6.25 g/ha a.s.
  herbicidal activity against BRADE found: 85
[3]; Ia48 12.5 g/ha a.s.
  herbicidal activity against ERICA found: 90
[6]; Ia48 3.12 g/ha a.s.
  herbicidal activity against ELEIN found: 20
[4]; Ia48 12.5 g/ha a.s.
  herbicidal activity against SETVI found: 95
[2]; Ia48 3.12 g/ha a.s.
  herbicidal activity against COMBE found: 60

## C#CCN1C(=O)COc2cc(F)c(-n3c(=O)cc(C(F)(F)F)n(C)c3=O)cc21 [example 39, reference compound]
[11]
  damages, unwanted plants Pharbitis purpurea: 80
[12]
  damages, unwanted plants Setaria faberi: 90
